From patent publication US20070105924A1 (priority 2005, published 2007)

Experiments:
[1] = isosteric functionality compared with a carboxylic group; cited from earlier work
GABA-AT [2] = molecular target: T1, GABA-AT (Sus scrofa, UniProt P80147); assay: Preliminary substrate activity test with [14C]-labeled α-ketoglutarate; format: biochemical, pig; conditions: for Converted α-KG: incubation time 48 h, GABA-AT 0.7 μM, substrate 2.5 mM, α-KG 2.9 mM; for substrate activity for GABA-AT (in words): preliminary test, 48 h incubation
T1 sequence (P80147 29-500): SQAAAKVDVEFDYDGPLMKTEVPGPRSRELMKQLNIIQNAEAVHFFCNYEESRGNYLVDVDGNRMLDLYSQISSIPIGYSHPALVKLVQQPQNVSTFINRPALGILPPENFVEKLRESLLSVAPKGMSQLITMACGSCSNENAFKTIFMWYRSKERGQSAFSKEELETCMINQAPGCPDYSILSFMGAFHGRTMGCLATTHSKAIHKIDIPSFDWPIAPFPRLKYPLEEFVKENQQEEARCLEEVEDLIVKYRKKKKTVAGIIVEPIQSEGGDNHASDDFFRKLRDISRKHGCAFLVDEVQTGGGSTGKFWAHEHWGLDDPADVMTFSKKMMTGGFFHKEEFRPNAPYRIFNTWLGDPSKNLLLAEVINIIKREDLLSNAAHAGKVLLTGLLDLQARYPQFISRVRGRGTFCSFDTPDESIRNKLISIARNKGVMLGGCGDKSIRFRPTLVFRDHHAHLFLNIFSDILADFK
Source text: Tetrazole derivative 5 was the most efficient of the synthesized substrates. The tetrazole group was the best bioisostere for the carboxylic acid group in this series of compounds tested.

GABA-AT [3] = molecular target: T1, GABA-AT; assay: Time-dependent inhibition of GABA-AT (Kitz and Wilson replot); format: biochemical, pig; conditions: for time-dependent inhibition of GABA-AT (in words): 9 and 10 compared with 8 at the same concentration
Procedure: Aliquots (20 μL) were withdrawn at timed intervals and were added immediately to the assay solution (575 μL) followed by the addition of excess SSDH (5 μL). The reaction rates were measured by a UV-vis spectrophotometer at 340 nm. […] A Kitz and Wilson replot was used to determine the kinetic constants kinact and KI, as referenced above.

GABA-AT [4] = molecular target: T1, GABA-AT; assay: Time-independent inhibition of GABA-AT; format: biochemical, pig; conditions: 1-10 mM inhibitor, 25° C., read-out: estimated IC50
Source text: The percentage of remained enzyme activity was obtained by comparison to that of an untreated enzyme control. The logarithm of the percentage of remained activity is plotted versus the concentration of the inhibitors to calculate IC50 values.

[5] = time-dependent inhibition, 25 ° C., pH 8.5

Converted α-KG (GABA-AT [2]) [%] | substrate activity for GABA-AT (in words) (GABA-AT [2]) | SMILES | time-dependent inhibition of GABA-AT (in words) (GABA-AT [3]) | other results
1.3 | substrates for GABA-AT | COC(=O)NC(=O)CCN [Compound 2, Methyl β-alanylcarbamate] |  | pKa [1]: ~8
6.4 | substrates for GABA-AT | CS(=O)(=O)NC(=O)CCN [Compound 3, Methyl b-alanylsulfonamide] |  | pKa [1]: comparable to that of a carboxylic acid
0.1 | little or no substrate activity | NCc1ccc2[nH]ccc2c1 [Compound 4, Indole-5-methanamine] |  | 
 |  | C=CC(N)CCc1nnn[nH]1 (stereo not drawn) [Compound 8, 1H-Tetrzole-5-(α-vinyl-propanamine)] | showed time-dependent inhibition | times less efficient (kinact/KI) than vigabatrin (GABA-AT [3]; relative to racemic vigabatrin): 6.6 times; kinact/KI (GABA-AT [3]; time-dependent inhibition): 2.17 M⁻¹ s⁻¹; Ki (GABA-AT [3]; [5]): 5.6 mM; kinact (GABA-AT [3]; [5]): 0.0122 s⁻¹
 |  | C=CC(N)CCc1nnn(C)n1 (stereo not drawn) [Compound 9, 2-Methyl-2H-tetrazole-5-(α-vinyl-propanamine)] | Neither 9 nor 10 showed time-dependent inhibition | IC50 (GABA-AT [4]): > 10 mM
 |  | C=CC(N)CCc1nnnn1C (stereo not drawn) [Compound 10, 1-methyl-1H-tetrazole-5-(α-vinyl-propanamine)] | Neither 9 nor 10 showed time-dependent inhibition | IC50 (GABA-AT [4]): > 10 mM
25 |  | NCCCC(=O)O [GABA, γ-aminobutyric acid, reference compound] |  | 

SMILES | Converted α-KG (GABA-AT [2]) [%] | substrate activity for GABA-AT (in words) (GABA-AT [2]) | time-dependent inhibition of GABA-AT (in words) (GABA-AT [3]) | other results
NCCc1nnn[nH]1 [Compound 5, 1H-Tetrazole-5-ethanamine] | 20 | substrates for GABA-AT |  | 
